Reference: US10150945B2, “Cell culture device and manufacturing method therof” (JNC CORPORATION, priority 2004, dated 2018)

Test system: A549 cells (human lung cancer cells)
Protocol: The cytotoxicity of ε-polylysines, the coating material used in the invention, to A549 cells (human lung cancer cells, obtained from ATCC) was evaluated. The cytotoxicity to ε-polylysine hydrochloride (Chisso Corp.) was compared with that to α-polylysine hydrobromide (Wako Pure Chemical, average molecular weight 15,000).
A549 cells were seeded on a 96-well microplate at a density of 1×10^4 cells/well. After culturing overnight at 37° C. under 5% CO2 using DME medium (containing 10% bovine embryonic serum), the medium was removed with an aspirator, and 40 μL each of fresh medium 1.25 times more concentrated as standard was added to each well. Finally 10 μL each of a polylysine salt solution that would eventually attain the specified concentration, and cultured at 37° C. for 3 hours.
After the 3-hour culture, the medium was removed again by an aspirator, 100 μL/well of fresh medium was added, and culture continued for 46 hours. The medium was still once more replaced by 110 μL of fresh medium, 10 μL each of Cell Counting Kit-8 (Dojindo Laboratories) was added and continued to be cultured for 2 hours at 37° C. for color reaction. A plate reader (Thermo Labsystems Multiskan Ascent BIF) was used to determine the absorbance at 450 nm (with 650 nm as a reference) and calculate the viability of the cells.

α-polylysine hydrobromide
viability of the cells (FIG. 5): no difference
